Measurements published in article PMC7029132, “The pentose phosphate pathway of cellulolytic clostridia relies on 6-phosphofructokinase instead of transaldolase” (The Journal of Biological Chemistry, 2019).

Biological target: T1, rabbit aldolase (Oryctolagus cuniculus, UniProt P00883)
T1 construct: gene ALDOA; commercial native enzyme (Sigma A8811)
T1 sequence (P00883 2-364): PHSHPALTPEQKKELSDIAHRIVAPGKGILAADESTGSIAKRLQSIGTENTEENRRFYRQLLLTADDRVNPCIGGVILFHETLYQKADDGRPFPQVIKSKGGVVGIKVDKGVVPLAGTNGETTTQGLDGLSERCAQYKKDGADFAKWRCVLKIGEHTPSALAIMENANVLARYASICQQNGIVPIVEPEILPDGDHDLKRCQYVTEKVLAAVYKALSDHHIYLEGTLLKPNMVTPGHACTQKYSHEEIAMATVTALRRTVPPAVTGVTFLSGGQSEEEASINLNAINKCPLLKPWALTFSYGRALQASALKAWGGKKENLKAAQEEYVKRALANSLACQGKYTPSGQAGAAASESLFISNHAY
Assay: LC-MS time course of E4P and DHAP formation, SBP made in situ by PPi-PFK
Format: biochemical
Conditions: 100 mM Tris-HCl pH 7 at 55 °C, 5 mM MgCl2, 5 mM PPi, 1 mM S7P, 4 units aldolase

## O=C(COP(=O)(O)O)[C@@H](O)[C@H](O)[C@H](O)[C@H](O)COP(=O)(O)O [SBP]
  LC-MS time course of E4P and DHAP formation, SBP made in situ by PPi-PFK: rabbit aldolase was able to convert the formed SBP to E4P and DHAP
